# Biological target: T1, human NaV1.8 (Homo sapiens, UniProt Q9Y5Y9)
# T1 construct: expressed in transfected cells; host or cells: HEK
# Test: Electrophysiology: voltage-clamp recordings, whole-cell patch clamp on Qube384 automated platform
# Format: cell-based
# Settings: HEK-NaV1.8 (NM 006514.1) with b3 recombinant cell line, multi hole plates, ambient room temperature, read-out: Potency category (human NaV1.8 IC50)
# Protocol: Electrophysiology: Voltage-Clamp recordings
# The following NaV1.8 recombinant cell line was used for recordings: HEK-NaV1.8 (NM 006514.1) with b3 (NM_018400.3).
# Sodium currents were measured using the patch clamp technique in the whole-cell configuration using the Qube384 (Sophion A/S, Copenhagen, Denmark) automated voltage clamp platform. "Multi hole" plates were used for the cell line expressing NaV1.8 while "single hole" plates were used for the recombinant cell lines expressing the other subtypes. Appropriate filters (for minimum seal resistance and minimum current size) and series resistance compensation (for high quality sodium channel recordings) were applied. Data was collected at ambient room temperature.
# The recording […] solution contained (in mM): NaCl 145 mM, KCl 4 mM, CaCl2 2 mM, MgCl2 1 mM, HEPES 10 mM, Glucose 10 mM, pH 7.4 (NaOH). The […] recording solution contained (in mM): CsF 120 mM, CsCl 20 mM, NaCl 10 mM, EGTA 10 mM, HEPES 10 mM, pH 7.2 (CsOH). Currents were recorded at 25 kHz sampling frequency and filtered at 5 kHz. Series resistance compensation was applied at 65%.
# Vehicle (VEH) is the control condition where cells are exposed to 0.3 % DMSO without compound. All runs include VEH controls being exposed to the same voltage protocols to assess non-compound related phenomena such as run down and then used to isolate compound dependent effects on currents.
# To check for state-dependence inhibition, the following voltage-sequence was applied every 20 seconds: From a resting membrane potential of-120 mV, the first test pulse (P1; 20 ms to -10 mV) was applied to check for channels in the Resting State followed by a brief recovery (20 ms to -120 mV), then holding the membrane voltage to V1/2 (4 seconds at voltage to obtain half the channel at Rest and half Inactivated) with a subsequent second test pulse (P2; 20 ms to -10 mV) to check for channels in the Inactivated State, followed by another brief recovery (20 ms to -120 mV) and a final third test pulse (P3; 20 ms to -10 mV) to check for recovered channels.
# To check for frequency-dependent inhibition, a 10 Hz protocol and a 20 Hz protocol were applied; namely,
# From a resting membrane potential of -120 mV, 40-pulses (10 ms to -10 mV) was applied at 10 Hz (at 100 ms between pulses) and then at 20 Hz (at 50 ms between pulses). Each parameter was recorded (P1, P2, P3, P40 from 10Hz and P40 from 20Hz) during a control period (lasting ~ 5 minutes) when establishing the baseline and during compound period (lasting ~ 12 minutes) when test compound (or vehicle) was applied. For each parameter, the value at the end of the compound period was normalized to the vehicle baseline; as follows Normalized Inhibition (NormCPD) = (CPD Valueend CPD period)/(VEH Valueend Control Period) [formula]
# To adjust for any variance in the Na^+ current signal during the compound period (owing to cumulative inactivation independent of compound or shifts in biophysics over time), a dedicated segment of the recording wells in each 384 plate were dedicated to having only vehicle exposure. These vehicle-only recordings were used to correct for any apparent "run-up" or "run-down" in the experiment. Normalized Inhibition (NormVEH) = (VEH Valueend CPD period)/(VEH Valueend Control Period) [formula]
# The adjusted inhibition was calculated as follows: % Inhibitioncorrected = 100 × (NormCPD −NormVEH)/(100−NormVEH) [formula]
# Percent inhibition was determined and IC50 values were calculated using a 4 parameter logistic model within XLFit Software (IDBS, Boston MA): % Inhibitioncorrected = A + ((B−A))/((1 + (((x)/(C)))^D) [formula] where A and B are the maximal and minimum inhibition respectively, C is the IC50 concentration and D is the (Hill) slope.
# T1 sequence (Q9Y5Y9 whole entry): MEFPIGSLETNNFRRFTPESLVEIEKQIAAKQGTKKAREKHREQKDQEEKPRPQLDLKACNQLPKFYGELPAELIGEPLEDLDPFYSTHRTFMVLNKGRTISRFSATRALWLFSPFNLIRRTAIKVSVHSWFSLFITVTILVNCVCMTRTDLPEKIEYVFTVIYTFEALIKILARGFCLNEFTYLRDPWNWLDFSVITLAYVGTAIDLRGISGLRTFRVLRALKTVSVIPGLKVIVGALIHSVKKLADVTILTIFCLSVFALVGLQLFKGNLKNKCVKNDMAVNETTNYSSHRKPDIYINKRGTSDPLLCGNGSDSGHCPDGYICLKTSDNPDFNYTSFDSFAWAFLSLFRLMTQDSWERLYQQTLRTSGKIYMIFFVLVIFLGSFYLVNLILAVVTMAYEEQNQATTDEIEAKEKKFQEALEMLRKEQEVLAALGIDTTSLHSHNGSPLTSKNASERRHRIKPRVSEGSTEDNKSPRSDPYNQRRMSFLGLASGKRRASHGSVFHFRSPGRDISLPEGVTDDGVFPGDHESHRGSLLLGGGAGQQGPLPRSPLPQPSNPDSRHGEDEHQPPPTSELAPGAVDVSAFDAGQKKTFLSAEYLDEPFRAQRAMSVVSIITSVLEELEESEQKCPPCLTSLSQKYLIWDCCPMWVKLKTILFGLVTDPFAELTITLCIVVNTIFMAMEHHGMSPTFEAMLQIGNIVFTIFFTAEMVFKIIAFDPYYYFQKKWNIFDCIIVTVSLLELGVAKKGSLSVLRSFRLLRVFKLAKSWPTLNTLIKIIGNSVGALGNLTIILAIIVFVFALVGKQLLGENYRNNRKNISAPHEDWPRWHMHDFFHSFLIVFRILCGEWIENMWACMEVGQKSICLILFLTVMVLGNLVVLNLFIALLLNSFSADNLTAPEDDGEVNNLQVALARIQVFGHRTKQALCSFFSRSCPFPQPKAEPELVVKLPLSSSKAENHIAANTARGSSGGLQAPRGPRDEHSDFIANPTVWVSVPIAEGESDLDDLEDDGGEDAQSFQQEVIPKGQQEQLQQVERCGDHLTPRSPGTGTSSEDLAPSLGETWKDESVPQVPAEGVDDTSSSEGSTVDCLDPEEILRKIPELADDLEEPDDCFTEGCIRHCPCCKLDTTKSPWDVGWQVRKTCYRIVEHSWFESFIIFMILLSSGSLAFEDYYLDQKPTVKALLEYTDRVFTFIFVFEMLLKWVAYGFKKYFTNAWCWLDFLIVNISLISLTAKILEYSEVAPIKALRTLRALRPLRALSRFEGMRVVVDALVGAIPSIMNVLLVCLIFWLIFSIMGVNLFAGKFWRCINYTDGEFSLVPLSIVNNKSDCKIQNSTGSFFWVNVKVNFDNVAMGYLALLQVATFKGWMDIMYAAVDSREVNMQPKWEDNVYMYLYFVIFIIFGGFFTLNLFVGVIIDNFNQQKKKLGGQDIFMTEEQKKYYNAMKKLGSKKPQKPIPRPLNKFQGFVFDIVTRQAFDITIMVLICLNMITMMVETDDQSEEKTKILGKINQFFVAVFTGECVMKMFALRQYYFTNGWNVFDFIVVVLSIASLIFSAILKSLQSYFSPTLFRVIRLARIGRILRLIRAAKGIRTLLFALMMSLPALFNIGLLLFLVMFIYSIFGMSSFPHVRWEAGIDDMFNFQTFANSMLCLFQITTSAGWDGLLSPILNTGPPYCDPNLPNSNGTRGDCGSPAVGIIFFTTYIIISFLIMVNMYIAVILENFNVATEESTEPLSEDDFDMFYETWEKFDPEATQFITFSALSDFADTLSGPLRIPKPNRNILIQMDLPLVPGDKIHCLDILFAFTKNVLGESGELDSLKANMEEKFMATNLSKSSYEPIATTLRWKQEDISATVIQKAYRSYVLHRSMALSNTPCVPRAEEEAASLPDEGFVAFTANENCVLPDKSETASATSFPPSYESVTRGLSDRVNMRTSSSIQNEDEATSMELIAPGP
row,SMILES,IC50 [nM]
1,"CC12CC(Cn3ncc(C(F)(F)F)c3C(=O)Nc3cccc(S(N)(=O)=O)c3)(CO1)C2 [Example 31, 1-((1-methyl-2-oxabicyclo[2.1.1]hexan-4-yl)methyl)-N-(3-sulfamoylphenyl)-4-(trifluoromethyl)-1H-pyrazole-5-carboxamide]",1000 to 10000
2,"Cc1c(C(C)(F)F)nn(CC23CC(C(F)(F)F)(C2)C3)c1C(=O)Nc1ccnc(S(C)(=O)=O)c1 [Example 25, 3-(1,1-difluoroethyl)-4-methyl-N-(2-(methylsulfonyl)pyridin-4-yl)-1-((3-(trifluoromethyl)bicyclo[1.1.1]pentan-1yl)methyl)-1H-pyrazole-5-carboxamide]",≤ 100
3,"Cc1nn(CC23CC(C2)C3)c(C(=O)Nc2ccc(F)c(C(N)=O)c2)c1C(F)(F)F [Example 40, 1-(bicyclo[1.1.1]pentan-1-ylmethyl)-N-(3-carbamoyl-4-fluorophenyl)-3-methyl-4-(trifluoromethyl)-1H-pyrazole-5-carboxamide]",100 to 1000
4,"CS(=O)(=O)n1cc(NC(=O)c2c(C(F)(F)F)cnn2CC2CC3(CC3)C2)cn1 [Example 48, N-(1-(methylsulfonyl)-1H-pyrazol-4-yl)-1-(spiro[2.3]hexan-5-ylmethyl)-4-(trifluoromethyl)-1H-pyrazole-5-carboxamide]",1000 to 10000
5,"NS(=O)(=O)c1cccc(NC(=O)c2c(C(F)(F)F)cnn2CC2CC3(CC3)C2)c1 [Example 34, 1-(spiro[2.3]hexan-5-ylmethyl)-N-(3-sulfamoylphenyl)-4-(trifluoromethyl)-1H-pyrazole-5-carboxamide]",100 to 1000
6,"NS(=O)(=O)c1cccc(NC(=O)c2c(C(F)(F)F)cnn2CC23CC(C2)C3)c1 [Example 32, 1-(bicyclo [1.1.1]pentan-1-ylmethyl)-N-(3-sulfamoylphenyl)-4-(trifluoromethyl)-1H-pyrazole-5-carboxamide]",100 to 1000
7,"CS(=O)(=O)n1cc(NC(=O)c2c(C(F)(F)F)cnn2CC23CCC(C2)C3)cn1 [Example 49, 1-(bicyclo[2.1.1]hexan-1ylmethyl)-N-(1-(methylsulfonyl)-1H-pyrazol-4-yl)-4-(trifluoromethyl)-1H-pyrazole-5-carboxamide]",100 to 1000
8,"NC(=O)c1cc(NC(=O)c2c(C(F)(F)F)cnn2CC2CC3(CC3)C2)ccc1F [Example 41, N-(3-carbamoyl-4-fluorophenyl)-1-(spiro[2.3]hexan-5-ylmethyl)-4-(trifluoromethyl)-1H-pyrazole-5-carboxamide]",100 to 1000
9,"CS(=O)(=O)c1cc(NC(=O)c2c(C(F)(F)F)c(C3CC3)nn2CC23CC(C(F)(F)F)(C2)C3)ccn1 [Example 28, 3-cyclopropyl-N-(2-(methylsulfonyl)pyridin-4-yl)-4-(trifluoromethyl)-1-((3-(trifluoromethyl)bicyclo[1.1.1]pentan-1yl)methyl)-1H-pyrazole-5-carboxamide]",≤ 100
10,"NC(=O)c1cc(NC(=O)c2c(C(F)(F)F)cnn2CC23CCC(C2)C3)ccc1F [Example 42, 1-(bicyclo[2.1.1]hexan-1-ylmethyl)-N-(3-carbamoyl-4-fluorophenyl)-4-(trifluoromethyl)-1H-pyrazole-5-carboxamide]",≤ 100
11,"Cc1c(C(C)(F)F)nn(CC23CC(F)(C2)C3)c1C(=O)Nc1ccnc(C(N)=O)c1 [Example 2, 4-(3-(1,1-difluoroethyl)-1-((3-fluorobicyclo [1.1.1]pentan-1-yl)methyl)-4-methyl-1H-pyrazole-5-carboxamido)picolinamide]",100 to 1000
12,"Cc1nn(CC23CCC(C2)C3)c(C(=O)Nc2ccc(F)c(C(N)=O)c2)c1C(F)(F)F [Example 36, 1-(bicyclo[2.1.1]hexan-1-ylmethyl)-N-(3-carbamoyl-4-fluorophenyl)-3-methyl-4-(trifluoromethyl)-1H-pyrazole-5-carboxamide]",≤ 100
13,"Cc1nn(CC23CC(F)(C2)C3)c(C(=O)Nc2ccnc(C(N)=O)c2)c1C(F)(F)F [Example 1, 4-(1-((3-fluorobicyclo[1.1.1]pentan-1-yl)methyl)-3-methyl-4-(trifluoromethyl)-1H-pyrazole-5-carboxamido)picolinamide]",100 to 1000
14,"NS(=O)(=O)c1cccc(NC(=O)c2c(C(F)(F)F)cnn2CC23CCC(C2)C3)c1 [Example 35, 1-(bicyclo[2.1.1]hexan-1-ylmethyl)-N-(3-sulfamoylphenyl)-4-(trifluoromethyl)-1H-pyrazole-5-carboxamide]",≤ 100
15,"NC(=O)c1cc(NC(=O)c2c(C(F)(F)F)c(C3CC3)nn2CC23CC(C(F)(F)F)(C2)C3)ccn1 [Example 9, 4-(3-cyclopropyl-4-(trifluoromethyl)-1-((3-(trifluoromethyl)bicyclo [1.1.1]pentan-1-yl)methyl)-1H-pyrazole-5-carboxamido)picolinamide]",≤ 100

# Other lines, results leading:
row,IC50 [nM],SMILES
1,1000 to 10000,"CC1(C)CC(Cn2nc(C3CC3)c(C(F)(F)F)c2C(=O)Nc2ccnc(S(C)(=O)=O)c2)O1 (single isomer, unassigned) [Example 22a, 3-cyclopropyl-1-((4,4-dimethyloxetan-2-yl)methyl)-N-(2-(methylsulfonyl)pyridin-4-yl)-4-(trifluoromethyl)-1H-pyrazole-5-carboxamide]"
2,100 to 1000,"CC1(C)CC(Cn2nc(C3CC3)c(C(F)(F)F)c2C(=O)Nc2ccnc(C(N)=O)c2)O1 (single isomer, unassigned) [Example 17a, 4-(3-cyclopropyl-1-((4,4-dimethyloxetan-2-yl)methyl)-4-(trifluoromethyl)-1H-pyrazole-5-carboxamido)picolinamide]"
3,≤ 100,"Cc1c(C(C)(F)F)nn(CC2(C)CC(F)(F)CC2C)c1C(=O)Nc1ccnc(S(N)(=O)=O)c1 (single isomer, unassigned) [Example 43c, 1-((4,4-difluoro-1,2-dimethylcyclopentyl)methyl)-3-(1,1-difluoroethyl)-4-methyl-N-(2-sulfamoylpyridin-4-yl)-1H-pyrazole-5-carboxamide]"
4,≤ 100,"Cc1c(C(C)(F)F)nn(CC2(C)CC(F)(F)CC2C)c1C(=O)Nc1ccnc(S(N)(=O)=O)c1 (single isomer, unassigned) [Example 43b, 1-((4,4-difluoro-1,2-dimethylcyclopentyl)methyl)-3-(1,1-difluoroethyl)-4-methyl-N-(2-sulfamoylpyridin-4-yl)-1H-pyrazole-5-carboxamide]"
5,≤ 100,"Cc1c(C(C)(F)F)nn(CC2(C)CC(F)(F)CC2C)c1C(=O)Nc1ccnc(C(N)=O)c1 (single isomer, unassigned) [Example 10d, 4-(1-((4,4-difluoro-1,2-dimethylcyclopentyl)methyl)-3-(1,1-difluoroethyl)-4-methyl-1H-pyrazole-5-carboxamido)picolinamide]"
6,≤ 100,"Cc1c(C(C)(F)F)nn(CC2(C)CC(F)(F)CC2C)c1C(=O)Nc1ccnc(S(N)(=O)=O)c1 (single isomer, unassigned) [Example 43d, 1-((4,4-difluoro-1,2-dimethylcyclopentyl)methyl)-3-(1,1-difluoroethyl)-4-methyl-N-(2-sulfamoylpyridin-4-yl)-1H-pyrazole-5-carboxamide]"
